Data: ChEMBL document CHEMBL4507277

Assays:
[1] = system: Tyrosine-protein kinase ABL1 (Homo sapiens), P00519 [F317L]; conditions: Compound concentration 1000.0 nM
[2] = target: RAC-beta serine/threonine-protein kinase (Homo sapiens) (UniProt P31751); conditions: Compound concentration 1000.0 nM
[3] = target: Tyrosine-protein kinase receptor UFO (Homo sapiens) (UniProt P30530); conditions: Compound concentration 1000.0 nM
[4] = target: Cyclin-dependent kinase 13 (Homo sapiens) (UniProt Q14004); conditions: Compound concentration 1000.0 nM
[5] = target: Cyclin-dependent kinase 2 (Homo sapiens) (UniProt P24941); conditions: Compound concentration 1000.0 nM
[6] = target: Dual specificity protein kinase CLK3 (Homo sapiens) (UniProt P49761); conditions: Compound concentration 1000.0 nM
[7] = target: Tyrosine-protein kinase CSK (Homo sapiens) (UniProt P41240); conditions: Compound concentration 1000.0 nM
[8] = target: Death-associated protein kinase 2 (Homo sapiens) (UniProt Q9UIK4); conditions: Compound concentration 1000.0 nM
[9] = system: Epidermal growth factor receptor (Homo sapiens), P00533 [L858R]; conditions: Compound concentration 1000.0 nM
[10] = target: Ephrin type-A receptor 7 (Homo sapiens) (UniProt Q15375); conditions: Compound concentration 1000.0 nM
[11] = target: Mitogen-activated protein kinase 6 (Homo sapiens) (UniProt Q16659); conditions: Compound concentration 1000.0 nM
[12] = system: Receptor-type tyrosine-protein kinase FLT3 (Homo sapiens), P36888 [D835H]; conditions: Compound concentration 1000.0 nM
[13] = target: Vascular endothelial growth factor receptor 3 (Homo sapiens) (UniProt P35916); conditions: Compound concentration 1000.0 nM
[14] = target: Cyclin-G-associated kinase (Homo sapiens) (UniProt O14976); conditions: Compound concentration 1000.0 nM
[15] = target: Glycogen synthase kinase-3 beta (Homo sapiens) (UniProt P49841); conditions: Compound concentration 1000.0 nM
[16] = target: Insulin receptor-related protein (Homo sapiens) (UniProt P14616); conditions: Compound concentration 1000.0 nM
[17] = target: Interleukin-1 receptor-associated kinase 4 (Homo sapiens) (UniProt Q9NWZ3); conditions: Compound concentration 1000.0 nM
[18] = target: Tyrosine-protein kinase JAK3 (Homo sapiens) (UniProt P52333); conditions: Compound concentration 1000.0 nM
[19] = target: Mitogen-activated protein kinase kinase kinase 3 (Homo sapiens) (UniProt Q99759); conditions: Compound concentration 1000.0 nM
[20] = target: Mitogen-activated protein kinase kinase kinase kinase 2 (Homo sapiens) (UniProt Q12851); conditions: Compound concentration 1000.0 nM
[21] = target: MAP kinase-activated protein kinase 5 (Homo sapiens) (UniProt Q8IW41); conditions: Compound concentration 1000.0 nM
[22] = target: Serine/threonine-protein kinase MARK2 (Homo sapiens) (UniProt Q7KZI7); conditions: Compound concentration 1000.0 nM
[23] = target: Hepatocyte growth factor receptor (Homo sapiens) (UniProt P08581); conditions: Compound concentration 1000.0 nM
[24] = target: Muscle, skeletal receptor tyrosine-protein kinase (Homo sapiens) (UniProt O15146); conditions: Compound concentration 1000.0 nM
[25] = target: Serine/threonine-protein kinase 38-like (Homo sapiens) (UniProt Q9Y2H1); conditions: Compound concentration 1000.0 nM
[26] = target: Platelet-derived growth factor receptor beta (Homo sapiens) (UniProt P09619); conditions: Compound concentration 1000.0 nM
[27] = target: Cyclin-dependent kinase 15 (Homo sapiens) (UniProt Q96Q40); conditions: Compound concentration 1000.0 nM
[28] = system: Phosphatidylinositol 4,5-bisphosphate 3-kinase catalytic subunit alpha isoform (Homo sapiens), P42336 [E542K]; conditions: Compound concentration 1000.0 nM
[29] = system: Phosphatidylinositol 4,5-bisphosphate 3-kinase catalytic subunit alpha isoform (Homo sapiens), P42336 [H1047Y]; conditions: Compound concentration 1000.0 nM
[30] = target: Phosphatidylinositol 4-phosphate 5-kinase type-1 gamma (Homo sapiens) (UniProt O60331); conditions: Compound concentration 1000.0 nM
[31] = target: cAMP-dependent protein kinase catalytic subunit beta (Homo sapiens) (UniProt P22694); conditions: Compound concentration 1000.0 nM
[32] = target: Serine/threonine-protein kinase PLK2 (Homo sapiens) (UniProt Q9NYY3); conditions: Compound concentration 1000.0 nM
[33] = target: Serine/threonine-protein kinase D1 (Homo sapiens) (UniProt Q15139); conditions: Compound concentration 1000.0 nM
[34] = target: Protein-tyrosine kinase 2-beta (Homo sapiens) (UniProt Q14289); conditions: Compound concentration 1000.0 nM
[35] = target: RAF proto-oncogene serine/threonine-protein kinase (Homo sapiens) (UniProt P04049); conditions: Compound concentration 1000.0 nM
[36] = system: Proto-oncogene tyrosine-protein kinase receptor Ret (Homo sapiens), P07949 [M918T]; conditions: Compound concentration 1000.0 nM
[37] = target: Receptor-interacting serine/threonine-protein kinase 2 (Homo sapiens) (UniProt O43353); conditions: Compound concentration 1000.0 nM
[38] = target: Dual serine/threonine and tyrosine protein kinase (Homo sapiens) (UniProt Q6XUX3); conditions: Compound concentration 1000.0 nM
[39] = target: Uncharacterized serine/threonine-protein kinase SBK3 (Homo sapiens) (UniProt P0C264); conditions: Compound concentration 1000.0 nM
[40] = target: Serine/threonine-protein kinase tousled-like 2 (Homo sapiens) (UniProt Q86UE8); conditions: Compound concentration 1000.0 nM
[41] = target: Serine/threonine-protein kinase 32A (Homo sapiens) (UniProt Q8WU08); conditions: Compound concentration 1000.0 nM
[42] = target: Mitogen-activated protein kinase kinase kinase 19 (Homo sapiens) (UniProt Q56UN5); conditions: Compound concentration 1000.0 nM
[43] = target: 5-hydroxytryptamine receptor 6 (Homo sapiens) (UniProt P50406); conditions: Compound concentration 10.0 uM
[44] = target: Alpha-1B adrenergic receptor (Homo sapiens) (UniProt P35368); conditions: Compound concentration 10.0 uM
[45] = target: Muscarinic acetylcholine receptor M2 (Homo sapiens) (UniProt P08172); conditions: Compound concentration 10.0 uM

Chain of RAC-beta serine/threonine-protein kinase (Homo sapiens) (P31751 whole entry): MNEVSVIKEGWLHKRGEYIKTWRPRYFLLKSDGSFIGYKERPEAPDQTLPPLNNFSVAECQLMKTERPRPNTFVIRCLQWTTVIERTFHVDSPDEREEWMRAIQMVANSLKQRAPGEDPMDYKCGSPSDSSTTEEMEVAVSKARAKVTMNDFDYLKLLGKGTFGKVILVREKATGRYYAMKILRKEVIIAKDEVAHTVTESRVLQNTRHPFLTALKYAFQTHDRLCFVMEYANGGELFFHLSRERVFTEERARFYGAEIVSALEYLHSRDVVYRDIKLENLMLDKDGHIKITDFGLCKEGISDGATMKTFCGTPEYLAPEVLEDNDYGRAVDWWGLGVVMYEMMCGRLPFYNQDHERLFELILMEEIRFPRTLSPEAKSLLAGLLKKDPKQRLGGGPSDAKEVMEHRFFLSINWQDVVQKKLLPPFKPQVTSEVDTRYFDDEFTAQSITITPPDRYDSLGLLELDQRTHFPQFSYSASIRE
Chain of Tyrosine-protein kinase CSK (Homo sapiens) (P41240 2-450 limits assumed): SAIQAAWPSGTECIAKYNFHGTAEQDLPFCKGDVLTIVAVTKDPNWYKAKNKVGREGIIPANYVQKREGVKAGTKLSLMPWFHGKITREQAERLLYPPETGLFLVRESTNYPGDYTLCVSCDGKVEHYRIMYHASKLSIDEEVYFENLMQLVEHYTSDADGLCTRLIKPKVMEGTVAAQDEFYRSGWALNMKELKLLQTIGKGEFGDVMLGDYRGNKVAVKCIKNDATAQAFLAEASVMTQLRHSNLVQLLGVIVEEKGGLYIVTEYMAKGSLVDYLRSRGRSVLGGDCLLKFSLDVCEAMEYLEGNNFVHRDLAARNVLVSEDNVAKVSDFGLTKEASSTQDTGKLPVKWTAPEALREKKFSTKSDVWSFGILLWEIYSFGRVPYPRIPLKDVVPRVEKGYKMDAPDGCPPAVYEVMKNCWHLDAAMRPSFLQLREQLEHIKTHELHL
Chain of Protein-tyrosine kinase 2-beta (Homo sapiens) (Q14289 whole entry, looked up): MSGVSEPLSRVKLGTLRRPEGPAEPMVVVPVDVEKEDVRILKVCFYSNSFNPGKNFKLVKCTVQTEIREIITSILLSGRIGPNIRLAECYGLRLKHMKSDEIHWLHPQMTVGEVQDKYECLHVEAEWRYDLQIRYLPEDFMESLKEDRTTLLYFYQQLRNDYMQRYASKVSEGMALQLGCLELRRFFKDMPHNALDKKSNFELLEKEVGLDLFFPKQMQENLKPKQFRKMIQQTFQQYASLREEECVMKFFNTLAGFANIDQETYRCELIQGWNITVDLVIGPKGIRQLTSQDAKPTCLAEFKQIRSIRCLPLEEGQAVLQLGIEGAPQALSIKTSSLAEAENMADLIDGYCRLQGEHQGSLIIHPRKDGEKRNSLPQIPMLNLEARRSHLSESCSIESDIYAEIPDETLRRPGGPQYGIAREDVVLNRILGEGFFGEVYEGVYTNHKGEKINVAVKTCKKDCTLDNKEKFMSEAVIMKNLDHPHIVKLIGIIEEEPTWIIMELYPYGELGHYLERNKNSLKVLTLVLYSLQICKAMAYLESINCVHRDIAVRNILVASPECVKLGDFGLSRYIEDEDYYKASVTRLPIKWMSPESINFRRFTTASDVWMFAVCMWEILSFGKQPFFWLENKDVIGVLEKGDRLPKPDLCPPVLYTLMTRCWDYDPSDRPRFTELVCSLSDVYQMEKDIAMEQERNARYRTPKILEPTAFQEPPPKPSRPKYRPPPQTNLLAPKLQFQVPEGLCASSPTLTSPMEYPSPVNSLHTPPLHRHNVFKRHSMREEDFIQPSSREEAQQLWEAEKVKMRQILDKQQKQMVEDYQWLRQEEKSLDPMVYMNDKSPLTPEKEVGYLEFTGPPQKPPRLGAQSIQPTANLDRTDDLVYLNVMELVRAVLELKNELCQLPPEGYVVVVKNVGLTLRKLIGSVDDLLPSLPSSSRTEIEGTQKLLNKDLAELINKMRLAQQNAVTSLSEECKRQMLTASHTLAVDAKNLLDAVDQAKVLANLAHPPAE
Chain of Dual specificity protein kinase CLK3 (Homo sapiens) (P49761 whole entry, looked up): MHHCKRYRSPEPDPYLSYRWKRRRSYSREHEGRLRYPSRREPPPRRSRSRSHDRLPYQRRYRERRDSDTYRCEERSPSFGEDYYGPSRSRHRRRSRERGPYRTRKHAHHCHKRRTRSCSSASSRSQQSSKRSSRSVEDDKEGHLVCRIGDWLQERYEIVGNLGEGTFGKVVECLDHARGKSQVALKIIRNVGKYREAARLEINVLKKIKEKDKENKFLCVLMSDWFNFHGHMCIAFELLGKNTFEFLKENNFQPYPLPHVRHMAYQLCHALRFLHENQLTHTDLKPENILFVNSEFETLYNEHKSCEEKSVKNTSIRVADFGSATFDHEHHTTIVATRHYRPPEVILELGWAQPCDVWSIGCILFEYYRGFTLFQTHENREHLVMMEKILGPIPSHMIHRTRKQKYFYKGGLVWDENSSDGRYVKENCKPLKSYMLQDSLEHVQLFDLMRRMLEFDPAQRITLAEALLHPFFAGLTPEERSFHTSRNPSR
Chain of Tyrosine-protein kinase ABL1 (Homo sapiens), P00519 [F317L] (P00519 whole entry F317L): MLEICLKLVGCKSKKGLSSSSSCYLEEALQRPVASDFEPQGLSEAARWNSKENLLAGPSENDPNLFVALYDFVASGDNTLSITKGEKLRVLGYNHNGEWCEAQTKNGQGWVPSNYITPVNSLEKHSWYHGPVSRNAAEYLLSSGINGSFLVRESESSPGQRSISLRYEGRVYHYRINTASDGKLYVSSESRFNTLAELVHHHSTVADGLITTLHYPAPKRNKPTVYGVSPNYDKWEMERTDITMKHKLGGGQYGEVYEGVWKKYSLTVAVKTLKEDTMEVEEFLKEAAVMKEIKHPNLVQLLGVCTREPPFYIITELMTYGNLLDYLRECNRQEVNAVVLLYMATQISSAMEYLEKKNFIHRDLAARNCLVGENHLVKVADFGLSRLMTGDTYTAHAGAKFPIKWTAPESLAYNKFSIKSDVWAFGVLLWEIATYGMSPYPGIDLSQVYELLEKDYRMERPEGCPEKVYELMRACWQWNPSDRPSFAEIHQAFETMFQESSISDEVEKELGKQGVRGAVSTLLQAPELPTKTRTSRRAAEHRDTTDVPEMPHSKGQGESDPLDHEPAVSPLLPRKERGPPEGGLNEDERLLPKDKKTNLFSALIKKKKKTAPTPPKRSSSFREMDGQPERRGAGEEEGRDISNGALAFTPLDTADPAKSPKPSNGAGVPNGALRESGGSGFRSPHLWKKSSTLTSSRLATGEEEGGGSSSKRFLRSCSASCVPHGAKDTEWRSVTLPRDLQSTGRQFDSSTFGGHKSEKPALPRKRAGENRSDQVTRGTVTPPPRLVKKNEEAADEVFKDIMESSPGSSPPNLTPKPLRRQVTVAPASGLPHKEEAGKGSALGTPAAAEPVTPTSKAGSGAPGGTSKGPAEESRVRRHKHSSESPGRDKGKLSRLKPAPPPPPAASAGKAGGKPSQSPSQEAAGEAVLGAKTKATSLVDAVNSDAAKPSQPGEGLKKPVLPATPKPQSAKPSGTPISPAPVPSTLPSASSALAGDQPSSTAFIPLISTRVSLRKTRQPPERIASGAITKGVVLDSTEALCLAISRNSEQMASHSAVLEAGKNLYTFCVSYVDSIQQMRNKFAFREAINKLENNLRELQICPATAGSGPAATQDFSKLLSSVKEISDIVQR
Chain of Phosphatidylinositol 4-phosphate 5-kinase type-1 gamma (Homo sapiens) (O60331 whole entry): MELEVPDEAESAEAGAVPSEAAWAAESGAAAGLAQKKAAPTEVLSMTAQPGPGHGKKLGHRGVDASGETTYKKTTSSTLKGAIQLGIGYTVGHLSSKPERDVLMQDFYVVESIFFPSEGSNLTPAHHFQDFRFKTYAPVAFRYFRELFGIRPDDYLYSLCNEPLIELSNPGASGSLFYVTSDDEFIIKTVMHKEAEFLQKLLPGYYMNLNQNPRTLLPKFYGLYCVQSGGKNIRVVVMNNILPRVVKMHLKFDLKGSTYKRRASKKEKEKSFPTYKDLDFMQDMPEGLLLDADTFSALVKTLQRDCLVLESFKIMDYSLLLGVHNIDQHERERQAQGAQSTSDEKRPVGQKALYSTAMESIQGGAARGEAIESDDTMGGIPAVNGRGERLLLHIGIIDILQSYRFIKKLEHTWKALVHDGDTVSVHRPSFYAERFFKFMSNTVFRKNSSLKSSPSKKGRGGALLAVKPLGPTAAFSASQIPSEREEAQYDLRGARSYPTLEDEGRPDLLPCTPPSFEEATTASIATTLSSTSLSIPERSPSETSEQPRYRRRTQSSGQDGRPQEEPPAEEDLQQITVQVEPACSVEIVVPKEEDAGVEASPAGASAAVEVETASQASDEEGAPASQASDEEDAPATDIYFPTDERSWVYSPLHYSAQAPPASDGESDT
Chain of 5-hydroxytryptamine receptor 6 (Homo sapiens) (P50406 whole entry): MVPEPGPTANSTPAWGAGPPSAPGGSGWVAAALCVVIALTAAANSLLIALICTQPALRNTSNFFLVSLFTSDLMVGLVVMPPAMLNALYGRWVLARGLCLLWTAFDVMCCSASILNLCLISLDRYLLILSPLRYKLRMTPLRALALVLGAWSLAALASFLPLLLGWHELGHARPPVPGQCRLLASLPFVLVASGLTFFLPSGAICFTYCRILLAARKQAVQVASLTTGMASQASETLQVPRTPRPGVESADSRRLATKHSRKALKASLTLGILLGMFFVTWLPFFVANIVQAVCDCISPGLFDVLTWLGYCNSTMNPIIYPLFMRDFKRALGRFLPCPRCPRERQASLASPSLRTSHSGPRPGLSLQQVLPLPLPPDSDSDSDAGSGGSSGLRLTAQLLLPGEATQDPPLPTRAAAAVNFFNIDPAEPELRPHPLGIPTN
Chain of Death-associated protein kinase 2 (Homo sapiens) (Q9UIK4 whole entry, looked up): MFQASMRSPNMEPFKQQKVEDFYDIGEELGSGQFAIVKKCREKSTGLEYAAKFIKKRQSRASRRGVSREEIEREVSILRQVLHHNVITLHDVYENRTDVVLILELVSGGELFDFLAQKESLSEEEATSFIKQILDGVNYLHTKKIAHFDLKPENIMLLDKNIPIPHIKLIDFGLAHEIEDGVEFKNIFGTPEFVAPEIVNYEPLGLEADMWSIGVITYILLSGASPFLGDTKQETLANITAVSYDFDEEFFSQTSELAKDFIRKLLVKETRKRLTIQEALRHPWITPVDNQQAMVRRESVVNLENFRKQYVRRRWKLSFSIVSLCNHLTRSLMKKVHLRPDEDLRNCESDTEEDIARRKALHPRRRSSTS

CCS(=O)(=O)c1cc2cc(C[C@](O)(CC(C)(C)c3ccc(F)cc3C(N)=O)C(F)(F)F)[nH]c2cn1
inactive: residual activity [1] 100% | residual activity [2] 94% | residual activity [3] 89% | residual activity [4] 100% | residual activity [5] 94% | residual activity [6] 100% | residual activity [7] 100% | residual activity [8] 90% | residual activity [9] 100% | residual activity [10] 86% | residual activity [11] 100% | residual activity [12] 100% | residual activity [13] 95% | residual activity [14] 100% | residual activity [15] 100% | residual activity [16] 100% | residual activity [17] 100% | residual activity [18] 72% | residual activity [19] 92% | residual activity [20] 96% | residual activity [21] 93% | residual activity [22] 78% | residual activity [23] 98% | residual activity [24] 94% | residual activity [26] 100% | residual activity [27] 88% | residual activity [28] 66% | residual activity [29] 100% | residual activity [30] 100% | residual activity [31] 100% | residual activity [32] 91% | residual activity [33] 100% | residual activity [34] 100% | residual activity [35] 83% | residual activity [36] 100% | residual activity [37] 67% | residual activity [38] 86% | residual activity [39] 100% | residual activity [40] 100% | residual activity [41] 84% | residual activity [42] 93% | inhibition [43] -3.78% | inhibition [44] 3.39% | inhibition [45] -0.48%
active: residual activity [25] 45%

CCS(=O)(=O)c1cc2cc(C[C@@](O)(CC(C)(C)c3ccc(F)cc3C(N)=O)C(F)(F)F)[nH]c2cn1
active: residual activity [25] 38%
inactive: residual activity [1] 90% | residual activity [2] 93% | residual activity [3] 100% | residual activity [4] 91% | residual activity [5] 96% | residual activity [6] 100% | residual activity [7] 82% | residual activity [8] 100% | residual activity [9] 90% | residual activity [10] 94% | residual activity [11] 72% | residual activity [12] 100% | residual activity [13] 90% | residual activity [14] 71% | residual activity [15] 90% | residual activity [16] 64% | residual activity [17] 100% | residual activity [18] 76% | residual activity [19] 90% | residual activity [20] 80% | residual activity [21] 81% | residual activity [22] 100% | residual activity [23] 100% | residual activity [24] 60% | residual activity [26] 100% | residual activity [27] 59% | residual activity [28] 74% | residual activity [29] 95% | residual activity [30] 98% | residual activity [31] 99% | residual activity [32] 100% | residual activity [33] 100% | residual activity [34] 100% | residual activity [35] 81% | residual activity [36] 98% | residual activity [37] 100% | residual activity [38] 100% | residual activity [39] 94% | residual activity [40] 97% | residual activity [41] 77% | residual activity [42] 76% | inhibition [43] -3.13% | inhibition [44] 1.64% | inhibition [45] -8.82%
